Test results from patent US11051515B2, “3-acyl-benzamides and their use as herbicides” (Bayer Aktiengesellschaft, priority 2017, dated 2021).

Legend:
[1] = test system: ALOMY; assay: Pre-emergence action against ALOMY; type: in vivo, Alopecurus myosuroides; conditions: dosage 320 g/ha, pre-emergence, scored visually after 3 weeks vs untreated controls, 100% = plants have died, 0% = like control plants
Outline: (§1)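 Seeds sown in sandy loam in wood-fiber pots and covered with soil. Greenhouse growth; visual damage scored after 3 weeks versus untreated controls (100% = dead, 0% = like control).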

[2] = test system: ABUTH; assay: Pre-emergence action against ABUTH; type: in vivo, Abutilon theophrasti; conditions: pre-emergence, dosage 320 g/ha, scored visually after 3 weeks vs untreated controls
Outline: as §1

[3] = test system: MATIN; assay: Pre-emergence action against MATIN; type: in vivo, Matricaria inodora; conditions: Dosage 320 g/ha, pre-emergence
Outline: as §1

[4] = test system: ABUTH; assay: Post-emergence action against ABUTH; type: in vivo, Abutilon theophrasti; conditions: post-emergence, dosage 80 g/ha, visual assessment about 3 weeks after treatment vs untreated controls
Outline: (§2)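 Post-emergence foliar spray on greenhouse plants at the one-leaf stage, using wettable-powder or emulsion-concentrate formulations in water (600 to […], plus 0.2% wetting agent). Damage scored by eye roughly 3 weeks later against untreated plants: 0% = like control, 100% = dead.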

[5] = test system: POLCO; assay: Pre-emergence action against POLCO; type: in vivo, Polygonum convolvulus; conditions: Dosage 320 g/ha, pre-emergence
Excerpt: Seeds of monocotyledonous and dicotyledonous weed plants and crop plants are laid out in sandy loam soil in wood-fiber pots and covered with soil. The compounds of the invention, formulated in the form of wettable powders (WP) or as emulsion concentrates (EC), are then applied to the surface of the covering soil in the form of an aqueous suspension or emulsion at a water application rate equating to […], with addition of 0.2% wetting agent. After the treatment, the pots are placed in a greenhouse and kept under good growth conditions for the trial plants. The damage to the test plants is scored visually after a test period of 3 weeks by comparison with untreated controls (herbicidal activity in percent (%): 100% activity=the plants have died, 0% activity=like control plants).

[6] = test system: PHBPU; assay: Post-emergence action against PHBPU; type: in vivo, Pharbitis purpurea; conditions: post-emergence, dosage 80 g/ha
Outline: as §2

[7] = test system: POLCO; assay: Post-emergence action against POLCO; type: in vivo, Polygonum convolvulus; conditions: post-emergence, dosage 80 g/ha
Protocol: Seeds of monocotyledonous and dicotyledonous weed and crop plants are laid out in sandy loam soil in wood-fiber pots, covered with soil and cultivated in a greenhouse under good growth conditions. 2 to 3 weeks after sowing, the test plants are treated at the one-leaf stage. The compounds of the invention, formulated in the form of wettable powders (WP) or as emulsion concentrates (EC), are then sprayed onto the green parts of the plants in the form of an aqueous suspension or emulsion at a water application rate equating to […], with addition of 0.2% wetting agent. After the test plants have been left to stand in the greenhouse under optimal growth conditions for about 3 weeks, the action of the preparations is assessed visually in comparison to untreated controls (herbicidal action in percent (%): 100% activity=the plants have died, 0% activity=like control plants). […] At the same time, inventive compounds leave Gramineae crops such as barley, wheat, rye, millet/Sorghum, corn or rice virtually undamaged when applied post-emergence, even at high active ingredient dosages. In addition, some substances are also harmless to dicotyledonous crops such as soya, cotton, oilseed rape, sugar beet or potatoes. Some of the compounds according to the invention have high selectivity and are therefore suitable for controlling unwanted vegetation in agricultural crops by the post-emergence method. The data of Tables B18 to B34 below illustrate, in an exemplary manner, the […] herbicidal action of the compounds according to the invention, the herbicidal activity being stated in percent.

[8] = test system: ECHCG; assay: Post-emergence action against ECHCG; type: in vivo, Echinochloa crus-galli; conditions: post-emergence, dosage 80 g/ha, visual assessment about 3 weeks after treatment vs untreated controls
Outline: as §2

[9] = test system: STEME; assay: Post-emergence action against STEME; type: in vivo, Stellaria media; conditions: post-emergence, dosage 80 g/ha
Outline: as §2

[10] = test system: SETVI; assay: Pre-emergence action against SETVI; type: in vivo, Setaria viridis; conditions: pre-emergence, dosage 320 g/ha, scored visually after 3 weeks vs untreated controls
Outline: as §1

[11] = test system: VIOTR; assay: Pre-emergence action against VIOTR; type: in vivo, Viola tricolor; conditions: Dosage 320 g/ha, pre-emergence
Outline: as §1

[12] = test system: AMARE; assay: Pre-emergence action against AMARE; type: in vivo, Amaranthus retroflexus; conditions: pre-emergence, dosage 320 g/ha, scored visually after 3 weeks vs untreated controls
Outline: as §1

[13] = test system: AMARE; assay: Post-emergence action against AMARE; type: in vivo, Amaranthus retroflexus; conditions: post-emergence, dosage 80 g/ha, visual assessment about 3 weeks after treatment vs untreated controls
Outline: as §2

[14] = test system: ECHCG; assay: Pre-emergence action against ECHCG; type: in vivo, Echinochloa crus-galli; conditions: pre-emergence, dosage 320 g/ha, scored visually after 3 weeks vs untreated controls
Outline: as §1

[15] = test system: MATIN; assay: Post-emergence action against MATIN; type: in vivo, Matricaria inodora; conditions: post-emergence, dosage 80 g/ha, visual assessment about 3 weeks after treatment vs untreated controls
Outline: as §2

[16] = test system: STEME; assay: Pre-emergence action against STEME; type: in vivo, Stellaria media; conditions: Dosage 320 g/ha, pre-emergence
Outline: as §1

[17] = test system: VIOTR; assay: Post-emergence action against VIOTR; type: in vivo, Viola tricolor; conditions: post-emergence, dosage 80 g/ha
Outline: as §2

[18] = test system: CYPES; assay: Pre-emergence action against CYPES; type: in vivo, Cyperus esculentus; conditions: pre-emergence, dosage 320 g/ha, scored visually after 3 weeks vs untreated controls
Outline: as §1

[19] = test system: SETVI; assay: Post-emergence action against SETVI; type: in vivo, Setaria viridis; conditions: post-emergence, dosage 80 g/ha, visual assessment about 3 weeks after treatment vs untreated controls
Outline: as §2

[20] = test system: VERPE; assay: Pre-emergence action against VERPE; type: in vivo, Veronica persica; conditions: Dosage 320 g/ha, pre-emergence
Outline: as §1

[21] = test system: PHBPU; assay: Pre-emergence action against PHBPU; type: in vivo, Pharbitis purpurea; conditions: Dosage 320 g/ha, pre-emergence
Outline: as §1

[22] = test system: CYPES; assay: Post-emergence action against CYPES; type: in vivo, Cyperus esculentus; conditions: post-emergence, dosage 80 g/ha, visual assessment about 3 weeks after treatment vs untreated controls
Outline: as §2

[23] = test system: VERPE; assay: Post-emergence action against VERPE; type: in vivo, Veronica persica; conditions: dosage 80 g/ha
Outline: as §2

[24] = test system: AVEFA; assay: Pre-emergence action against AVEFA; type: in vivo, Avena fatua; conditions: dosage 320 g/ha, scored visually after 3 weeks vs untreated controls
Outline: as §1

CC(=O)c1c(C)ccc(C(=O)Nc2nnnn2C)c1C [1-1]
80%: pest or weed control at 320 g/ha ([1]; Alopecurus myosuroides, 504 h, read-out: Pre-emergence action against ALOMY (herbicidal activity in percent)) | pest or weed control at 320 g/ha ([5]; Fallopia convolvulus, 504 h) | pest or weed control at 80 g/ha ([7]; Fallopia convolvulus, 504 h) | pest or weed control at 80 g/ha ([15]; Tripleurospermum inodorum, 504 h, read-out: Post-emergence action against MATIN (herbicidal action in percent))
90%: pest or weed control at 320 g/ha ([2]; Abutilon theophrasti, 504 h, read-out: Pre-emergence action against ABUTH (herbicidal activity)) | pest or weed control at 80 g/ha ([6]; Ipomoea purpurea, 504 h) | pest or weed control at 320 g/ha ([10]; Setaria viridis, 504 h, read-out: SETVI (Table B8, pre-emergence herbicidal activity)) | pest or weed control at 320 g/ha ([14]; Echinochloa crus-galli, 504 h, read-out: Pre-emergence action against ECHCG (herbicidal activity)) | pest or weed control at 320 g/ha ([16]; Stellaria media, 504 h)
100%: pest or weed control at 320 g/ha ([3]; Tripleurospermum inodorum, 504 h) | pest or weed control at 80 g/ha ([4]; Abutilon theophrasti, 504 h, read-out: Post-emergence action against ABUTH (herbicidal action in percent)) | pest or weed control at 80 g/ha ([8]; Echinochloa crus-galli, 504 h, read-out: Post-emergence action against ECHCG (herbicidal action in percent)) | pest or weed control at 80 g/ha ([9]; Stellaria media, 504 h) | pest or weed control at 320 g/ha ([11]; Viola tricolor, 504 h) | pest or weed control at 320 g/ha ([12]; Amaranthus retroflexus, 504 h, read-out: Pre-emergence action against AMARE (herbicidal activity)) | pest or weed control at 80 g/ha ([13]; Amaranthus retroflexus, 504 h, read-out: Post-emergence action against AMARE (herbicidal action in percent)) | pest or weed control at 80 g/ha ([17]; Viola tricolor, 504 h)

CCn1nnnc1NC(=O)c1ccc(C)c(C(C)=O)c1C [2-1]
80: Post-emergence action against STEME [9]
100: Post-emergence action against POLCO [7] | Post-emergence action against VIOTR [17]
100%: Post-emergence action against ECHCG (herbicidal action in percent) [8] | Pre-emergence action against VIOTR [11] | Pre-emergence action against AMARE (herbicidal activity) [12] | Post-emergence action against AMARE (herbicidal action in percent) [13]
80%: Post-emergence action against ABUTH (herbicidal action in percent) [4] | Pre-emergence action against CYPES (herbicidal activity) [18] | Post-emergence action against SETVI (herbicidal action in percent) [19]
90: Post-emergence action against PHBPU [6]
90%: Pre-emergence action against ALOMY (herbicidal activity in percent) [1] | Pre-emergence action against ABUTH (herbicidal activity) [2] | Pre-emergence action against MATIN [3] | Pre-emergence action against POLCO [5] | SETVI (Table B8, pre-emergence herbicidal activity) [10] | Pre-emergence action against ECHCG (herbicidal activity) [14] | Post-emergence action against MATIN (herbicidal action in percent) [15] | Pre-emergence action against STEME [16]

CCn1nnnc1NC(=O)c1ccc(Cl)c(C(=O)C(C)C)c1Cl [2-280]
80%: Pre-emergence action against POLCO [5]
90: Post-emergence action against VIOTR [17]
80: Post-emergence action against POLCO [7]
100: Post-emergence action against PHBPU [6] | Post-emergence action against STEME [9]
90%: Post-emergence action against ABUTH (herbicidal action in percent) [4] | Post-emergence action against ECHCG (herbicidal action in percent) [8] | Pre-emergence action against VERPE [20] | Post-emergence action against MATIN (herbicidal action in percent) [15] | Post-emergence action against SETVI (herbicidal action in percent) [19] | Pre-emergence action against STEME [16]
100%: Pre-emergence action against ALOMY (herbicidal activity in percent) [1] | Pre-emergence action against ABUTH (herbicidal activity) [2] | Pre-emergence action against MATIN [3] | Pre-emergence action against AMARE (herbicidal activity) [12] | Post-emergence action against AMARE (herbicidal action in percent) [13] | Pre-emergence action against ECHCG (herbicidal activity) [14]

CCCn1nnnc1NC(=O)c1ccc(C(F)(F)F)c(C(C)=O)c1OC [3-48]
100: Post-emergence action against PHBPU [6] | Post-emergence action against STEME [9] | Post-emergence action against VIOTR [17]
100%: Pre-emergence action against ABUTH (herbicidal activity) [2] | Pre-emergence action against MATIN [3] | Post-emergence action against ABUTH (herbicidal action in percent) [4] | SETVI (Table B8, pre-emergence herbicidal activity) [10] | Pre-emergence action against VIOTR [11] | Pre-emergence action against AMARE (herbicidal activity) [12] | Pre-emergence action against ECHCG (herbicidal activity) [14] | Post-emergence action against MATIN (herbicidal action in percent) [15]
90%: Pre-emergence action against ALOMY (herbicidal activity in percent) [1] | Post-emergence action against CYPES (herbicidal action in percent) [22] | Post-emergence action against ECHCG (herbicidal action in percent) [8] | Pre-emergence action against CYPES (herbicidal activity) [18] | Pre-emergence action against VERPE [20] | Pre-emergence action against STEME [16]
80: Post-emergence action against VERPE [23] | Post-emergence action against POLCO [7]
80%: Pre-emergence action against PHBPU [21] | Pre-emergence action against POLCO [5] | Post-emergence action against SETVI (herbicidal action in percent) [19]

CCCn1nnnc1NC(=O)c1ccc(C(F)(F)F)c(C(C)=O)c1Br [3-195]
90%: Pre-emergence action against PHBPU [21] | Post-emergence action against ECHCG (herbicidal action in percent) [8] | Pre-emergence action against CYPES (herbicidal activity) [18] | Post-emergence action against MATIN (herbicidal action in percent) [15] | Post-emergence action against SETVI (herbicidal action in percent) [19] | Pre-emergence action against AVEFA (herbicidal activity) [24] | Pre-emergence action against STEME [16]
100%: Pre-emergence action against ABUTH (herbicidal activity) [2] | Pre-emergence action against MATIN [3] | SETVI (Table B8, pre-emergence herbicidal activity) [10] | Pre-emergence action against VIOTR [11] | Pre-emergence action against AMARE (herbicidal activity) [12] | Pre-emergence action against ECHCG (herbicidal activity) [14] | Pre-emergence action against VERPE [20]
90: Post-emergence action against PHBPU [6] | Post-emergence action against POLCO [7] | Post-emergence action against STEME [9] | Post-emergence action against VIOTR [17]
80%: Pre-emergence action against ALOMY (herbicidal activity in percent) [1] | Post-emergence action against CYPES (herbicidal action in percent) [22]
